The assay deals with MetAP-2 (Homo sapiens, UniProt P50579). Description: MetAP-2 activity measurement (coupled enzymatic reactions, substrate Met-Arg-Ser). It counts as biochemical. The following applies: Inhibition of MetAP-2; read-out: IC50 enzyme. As to the method: MetAP-2 Activity Measurement
The MetAP-2 activity is determined by coupling enzymatic reactions. The tripeptide Met-Arg-Ser (MAS) is employed as substrate. The methionine liberated is firstly converted into Metox and H2O2 by L-aminooxidase (AAO).
MetAP-2 activity can be recorded continuously as kinetics. The reaction scheme illustrates that one mol of dianisidineox is formed per mol of methionene. The MetAP-2 enzyme activity can therefore be calculated directly as Δ absorption per time unit. […] of the MetAP-2 activity (mol of Met/time unit) is possible with the aid of the dianisidineox extinction coefficient.
The change in extinction per time unit is depicted graphically and a slope calculation is carried out in the visually linear region of the reaction.

MetAP-2, sequence (P50579 whole entry, species assumed): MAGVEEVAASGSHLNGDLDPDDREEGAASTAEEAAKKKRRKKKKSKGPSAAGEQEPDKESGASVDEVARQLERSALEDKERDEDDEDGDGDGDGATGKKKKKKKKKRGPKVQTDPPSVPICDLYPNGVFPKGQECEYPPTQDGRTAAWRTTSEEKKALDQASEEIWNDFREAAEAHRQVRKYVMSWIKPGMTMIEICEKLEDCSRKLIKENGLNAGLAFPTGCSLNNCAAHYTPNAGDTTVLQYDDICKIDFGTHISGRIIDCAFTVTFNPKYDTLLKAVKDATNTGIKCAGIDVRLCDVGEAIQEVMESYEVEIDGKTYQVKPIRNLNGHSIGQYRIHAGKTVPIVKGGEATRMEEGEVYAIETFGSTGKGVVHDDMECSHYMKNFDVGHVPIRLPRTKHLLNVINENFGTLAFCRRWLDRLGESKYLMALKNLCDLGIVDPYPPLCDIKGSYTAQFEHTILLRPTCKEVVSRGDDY

As usually defined, the IC50 is the concentration that gives 50% inhibition. In the case of `CS(=O)(=O)N1CCc2cc(N3CCC(O)(C(=O)NCc4cc(F)cc(Cl)c4)C3=O)ccc21` (centres unmarked) [A253], the concentration for half-maximal inhibition (IC50) was in the range of 10 to 1000 nM.

For the molecule `CS(=O)(=O)c1ccc(N2CC[C@](O)(C(=O)NCc3cc(F)cc(Cl)c3)C2=O)cc1` [A260], the IC50 is 10 to 1000 nM.

For `CC(=O)N1CCc2cc(N3CCC(O)(C(=O)NCCc4cc(F)cc(Cl)c4)C3=O)ccc21` (centres unmarked) [A261], the 50% inhibitory concentration (IC50) is 10 to 1000 nM.

In the case of `Cc1nnc(-c2ccc(N3CC[C@](O)(C(=O)NCc4cc(F)cc(Cl)c4)C3=O)cc2)o1` [A267], the IC50 was 10 to 1000 nM.

Take `O=C(NCc1cc(F)cc(Cl)c1)C1(O)CCN(c2ccc3c(cnn3C3CCCCO3)c2)C1=O` (centres unmarked) [A279]: the IC50 lay in the range of 10 to 1000 nM.

Consider `O=CN1CCc2cc(N3CC[C@](O)(C(=O)NCc4cc(F)cc(Cl)c4)C3=O)ccc21` [A282], for which the IC50 lay in the range of 10 to 1000 nM.

On to `O=CN1CCc2cc(N3CC[C@@](O)(C(=O)NCc4cc(F)cc(Cl)c4)C3=O)ccc21` [A285], for which the IC50 was above 10000 nM.

Turning to `COC(=O)N1CCc2cc(N3CCC(O)(C(=O)NCc4cc(F)cc(Cl)c4)C3=O)ccc21` (centres unmarked) [A286], the IC50 fell in the range of 10 to 1000 nM.

As to `CNC(=O)Cn1ccc2cc(N3CC[C@](O)(C(=O)NCc4cc(F)cc(Cl)c4)C3=O)ccc21` [A287], the half-inhibitory concentration (IC50) was 10 to 1000 nM.

For `C#CC(NC(=O)[C@@]1(O)CCN(c2ccccc2)C1=O)c1ccccc1` (some centres unmarked) [A288], the IC50 fell in the range of 10 to 1000 nM.

Regarding `CCNC(=O)N1CCc2cc(N3CC[C@](O)(C(=O)NCc4cc(F)cc(Cl)c4)C3=O)ccc21` [A290], the IC50 fell in the range of 10 to 1000 nM.

As for `O=C(NCCCN1CCOCC1)[C@@]1(O)CCN(c2ccccc2)C1=O` [A292], the IC50 was above 10000 nM.

Take `O=C(NCc1ccc2c(c1)OCO2)[C@@]1(O)CCN(c2ccccc2)C1=O` [A295]: the IC50 lay in the range of 1000 to 10000 nM.

As to `CCCC(C)NC(=O)[C@@]1(O)CCN(c2ccccc2)C1=O` (some centres unmarked) [A298], the concentration for half-maximal inhibition (IC50) was 1000 to 10000 nM.

For `O=C(N1CCOCC1)[C@@]1(O)CCN(c2ccccc2)C1=O` [A300], the 50% inhibitory concentration (IC50) is above 10000 nM.

In the case of `CC(C)OCCCNC(=O)[C@@]1(O)CCN(c2ccccc2)C1=O` [A301], the IC50 was in the range of 1000 to 10000 nM.

Turning to `O=C(NCc1ccccc1C(F)(F)F)[C@@]1(O)CCN(c2ccccc2)C1=O` [A302], the IC50 lay in the range of 10 to 1000 nM.

Take `CCN(Cc1ccccc1)C(=O)[C@@]1(O)CCN(c2ccccc2)C1=O` [A303]: the half-maximal inhibitory concentration (IC50) is above 10000 nM.

With `CC(C)CNC(=O)[C@@]1(O)CCN(c2ccccc2)C1=O` [A305], the half-maximal inhibitory concentration (IC50) is 1000 to 10000 nM.

On to `O=C(N1CCCCC1)[C@@]1(O)CCN(c2ccccc2)C1=O` [A308], for which the IC50 is above 10000 nM.

Consider `CCCCNC(=O)[C@@]1(O)CCN(c2ccccc2)C1=O` [A310], for which the half-maximal inhibitory concentration (IC50) lay within 10 to 1000 nM.

`CC1CCN(C(=O)[C@@]2(O)CCN(c3ccccc3)C2=O)CC1` [A316]: the half-maximal inhibitory concentration (IC50) lay in the range of 1000 to 10000 nM.

For `O=C(NC1COc2ccccc2C1)[C@@]1(O)CCN(c2ccccc2)C1=O` (some centres unmarked) [A320], the IC50 was 10 to 1000 nM.

Consider `CN(Cc1ccsc1)C(=O)[C@@]1(O)CCN(c2ccccc2)C1=O` [A321], for which the 50% inhibitory concentration (IC50) is above 10000 nM.

For `CN(C(=O)[C@@]1(O)CCN(c2ccccc2)C1=O)C1CCCC1` [A323], the IC50 lay in the range of 1000 to 10000 nM.

For `O=C(NCC1CCCCC1)[C@@]1(O)CCN(c2ccccc2)C1=O` [A324], the IC50 is 10 to 1000 nM.

Turning to `CC(C)C(C)NC(=O)[C@@]1(O)CCN(c2ccccc2)C1=O` (some centres unmarked) [A326], the IC50 was 1000 to 10000 nM.

For `CCCOCCNC(=O)[C@@]1(O)CCN(c2ccccc2)C1=O` [A329], the half-maximal inhibitory concentration (IC50) is 1000 to 10000 nM.

As to `O=C(NCc1ccc(C(F)(F)F)cc1)[C@@]1(O)CCN(c2ccccc2)C1=O` [A333], the IC50 is above 10000 nM.

These data come from US8895535B2, “Pyrrolidinones as MetAP-2 inhibitors” (Merck Patent GmbH, priority 2010, dated 2014).
